In the supplement of paper PMC10307832:

What was measured:
Test in all cases: relative viability (nuclei count vs DMSO), 5 days (fraction); higher = more cells survive
HCC-366 = system: HCC-366
How it was run: (§1)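 Lung cancer cell lines in 1536-well plates were dosed by pin tool the day after seeding, either with one drug alone or with a fixed anchor-drug dose plus five library-drug doses (not always all listed) in √10 steps. After 5 days, cells were fixed and their nuclei stained in one step (final 0.05% Triton X-100, 1% formaldehyde, 1 ug/ml Hoechst), then counted on 4× images. Relative viability is the nuclei count in treated wells divided by that in vehicle wells. Values are medians of duplicate plates.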

LK-2 = system: LK-2
How it was run: as §1

HARA = system: HARA
How it was run: as §1

NCI-H441 = system: NCI-H441
How it was run: as §1

CAL-12T = system: CAL-12T
How it was run: as §1

EMC-BAC-2 = system: EMC-BAC-2
How it was run: as §1

NCI-H1437 = system: NCI-H1437
How it was run: as §1

UMC-11 = system: UMC-11
How it was run: as §1

HOP-62 = system: HOP-62
How it was run: as §1

NCI-H3122 = system: NCI-H3122
How it was run: as §1

NCI-H2347 = system: NCI-H2347
How it was run: as §1

NCI-H596 = system: NCI-H596
How it was run: as §1

NCI-H1734 = system: NCI-H1734
How it was run: as §1

NCI-H727 = system: NCI-H727
How it was run: as §1

COR-L23 = system: COR-L23
How it was run: as §1

NCI-H1651 = system: NCI-H1651
How it was run: as §1

RERF-LC-KJ = system: RERF-LC-KJ
How it was run: as §1

NCI-H1650 = system: NCI-H1650
How it was run: as §1

PC-3 [JPC-3] = system: PC-3 [JPC-3]
How it was run: as §1

NCI-H1755 = system: NCI-H1755
How it was run: as §1

SK-LU-1 = system: SK-LU-1
How it was run: as §1

CCNC(=O)c1noc(-c2cc(C(C)C)c(O)cc2O)c1-c1ccc(CN2CCOCC2)cc1 [Luminespib] + CC(=O)Nc1cccc(-n2c(=O)n(C3CC3)c(=O)c3c(Nc4ccc(I)cc4F)n(C)c(=O)c(C)c32)c1 [Trametinib] (partner 0.02 µM)
relative viability (HCC-366; first compound 0.002 µM): 0.354 | relative viability (HCC-366; first compound 0.006325 µM): 0.363 | relative viability (HCC-366; first compound 0.02 µM): 0.349 | relative viability (HCC-366; first compound 0.06325 µM): 0.026 | relative viability (HCC-366; first compound 0.2 µM): 0.0301 | relative viability (LK-2; first compound 0.002 µM): 0.834 | relative viability (LK-2; first compound 0.006325 µM): 0.711 | relative viability (LK-2; first compound 0.02 µM): 0.637 | relative viability (LK-2; first compound 0.06325 µM): 0.164 | relative viability (LK-2; first compound 0.2 µM): 0.166 | relative viability (HARA; first compound 0.002 µM): 0.667 | relative viability (HARA; first compound 0.006325 µM): 0.614 | relative viability (HARA; first compound 0.02 µM): 0.471 | relative viability (HARA; first compound 0.06325 µM): 0.121 | relative viability (HARA; first compound 0.2 µM): 0.141 | relative viability (NCI-H441; first compound 0.002 µM): 0.555 | relative viability (NCI-H441; first compound 0.006325 µM): 0.465 | relative viability (NCI-H441; first compound 0.02 µM): 0.271 | relative viability (NCI-H441; first compound 0.06325 µM): 0.0929 | relative viability (NCI-H441; first compound 0.2 µM): 0.11 | relative viability (CAL-12T; first compound 0.002 µM): 0.321 | relative viability (CAL-12T; first compound 0.006325 µM): 0.356 | relative viability (CAL-12T; first compound 0.02 µM): 0.162 | relative viability (CAL-12T; first compound 0.06325 µM): 0.111 | relative viability (CAL-12T; first compound 0.2 µM): 0.117 | relative viability (EMC-BAC-2; first compound 0.002 µM): 0.857 | relative viability (EMC-BAC-2; first compound 0.02 µM): 0.643 | relative viability (EMC-BAC-2; first compound 0.06325 µM): 0.619 | relative viability (EMC-BAC-2; first compound 0.2 µM): 0.247 | relative viability (NCI-H1437; first compound 0.002 µM): 0.595 | relative viability (NCI-H1437; first compound 0.006325 µM): 0.52 | relative viability (NCI-H1437; first compound 0.02 µM): 0.492 | relative viability (NCI-H1437; first compound 0.06325 µM): 0.325 | relative viability (NCI-H1437; first compound 0.2 µM): 0.217 | relative viability (UMC-11; first compound 0.002 µM): 0.496 | relative viability (UMC-11; first compound 0.006325 µM): 0.685 | relative viability (UMC-11; first compound 0.02 µM): 0.308 | relative viability (UMC-11; first compound 0.06325 µM): 0.212 | relative viability (UMC-11; first compound 0.2 µM): 0.157 | relative viability (HOP-62; first compound 0.002 µM): 0.37 | relative viability (HOP-62; first compound 0.006325 µM): 0.351 | relative viability (HOP-62; first compound 0.02 µM): 0.311 | relative viability (HOP-62; first compound 0.06325 µM): 0.309 | relative viability (HOP-62; first compound 0.2 µM): 0.183 | relative viability (NCI-H3122; first compound 0.002 µM): 0.179 | relative viability (NCI-H3122; first compound 0.006325 µM): 0.27 | relative viability (NCI-H3122; first compound 0.02 µM): 0.141 | relative viability (NCI-H3122; first compound 0.06325 µM): 0.242 | relative viability (NCI-H3122; first compound 0.2 µM): 0.186 | relative viability (NCI-H2347; first compound 0.002 µM): 0.29 | relative viability (NCI-H2347; first compound 0.006325 µM): 0.307 | relative viability (NCI-H2347; first compound 0.02 µM): 0.269 | relative viability (NCI-H2347; first compound 0.06325 µM): 0.254 | relative viability (NCI-H2347; first compound 0.2 µM): 0.294 | relative viability (NCI-H596; first compound 0.002 µM): 0.873 | relative viability (NCI-H596; first compound 0.006325 µM): 0.835 | relative viability (NCI-H596; first compound 0.02 µM): 0.743 | relative viability (NCI-H596; first compound 0.06325 µM): 0.806 | relative viability (NCI-H596; first compound 0.2 µM): 0.646 | relative viability (NCI-H1734; first compound 0.002 µM): 0.65 | relative viability (NCI-H1734; first compound 0.006325 µM): 0.586 | relative viability (NCI-H1734; first compound 0.02 µM): 0.579 | relative viability (NCI-H1734; first compound 0.06325 µM): 0.199 | relative viability (NCI-H1734; first compound 0.2 µM): 0.172 | relative viability (NCI-H727; first compound 0.002 µM): 0.422 | relative viability (NCI-H727; first compound 0.006325 µM): 0.397 | relative viability (NCI-H727; first compound 0.02 µM): 0.404 | relative viability (NCI-H727; first compound 0.06325 µM): 0.247 | relative viability (NCI-H727; first compound 0.2 µM): 0.253 | relative viability (COR-L23; first compound 0.002 µM): 0.569 | relative viability (COR-L23; first compound 0.006325 µM): 0.462 | relative viability (COR-L23; first compound 0.02 µM): 0.223 | relative viability (COR-L23; first compound 0.06325 µM): 0.0665 | relative viability (COR-L23; first compound 0.2 µM): 0.0604 | relative viability (NCI-H1651; first compound 0.002 µM): 0.787 | relative viability (NCI-H1651; first compound 0.006325 µM): 0.798 | relative viability (NCI-H1651; first compound 0.02 µM): 0.634 | relative viability (NCI-H1651; first compound 0.06325 µM): 0.754 | relative viability (NCI-H1651; first compound 0.2 µM): 0.609 | relative viability (RERF-LC-KJ; first compound 0.002 µM): 0.867 | relative viability (RERF-LC-KJ; first compound 0.006325 µM): 0.903 | relative viability (RERF-LC-KJ; first compound 0.02 µM): 0.711 | relative viability (RERF-LC-KJ; first compound 0.06325 µM): 0.437 | relative viability (RERF-LC-KJ; first compound 0.2 µM): 0.21 | relative viability (NCI-H1650; first compound 0.002 µM): 0.571 | relative viability (NCI-H1650; first compound 0.006325 µM): 0.565 | relative viability (NCI-H1650; first compound 0.02 µM): 0.178 | relative viability (NCI-H1650; first compound 0.06325 µM): 0.1 | relative viability (NCI-H1650; first compound 0.2 µM): 0.0947 | relative viability (PC-3 [JPC-3]; first compound 0.002 µM): 0.75 | relative viability (PC-3 [JPC-3]; first compound 0.006325 µM): 0.682 | relative viability (PC-3 [JPC-3]; first compound 0.02 µM): 0.517 | relative viability (PC-3 [JPC-3]; first compound 0.06325 µM): 0.505 | relative viability (PC-3 [JPC-3]; first compound 0.2 µM): 0.457 | relative viability (NCI-H1755; first compound 0.002 µM): 0.783 | relative viability (NCI-H1755; first compound 0.006325 µM): 0.733 | relative viability (NCI-H1755; first compound 0.02 µM): 0.691 | relative viability (NCI-H1755; first compound 0.06325 µM): 0.765 | relative viability (NCI-H1755; first compound 0.2 µM): 0.701 | relative viability (SK-LU-1; first compound 0.002 µM): 0.478 | relative viability (SK-LU-1; first compound 0.006325 µM): 0.371 | relative viability (SK-LU-1; first compound 0.02 µM): 0.314 | relative viability (SK-LU-1; first compound 0.06325 µM): 0.178 | relative viability (SK-LU-1; first compound 0.2 µM): 0.185
